Active and inactive are the calls of the source.
Tests used:
[1] = molecular target: Glyceraldehyde-3-phosphate dehydrogenase (Homo sapiens, UniProt P04406)
[2] = molecular target: T1, High affinity choline transporter 1 (Homo sapiens, UniProt Q9GZV3); assay: human choline transporter blockers, potency – cell-based, 5-point CRC, membrane potential dye, dose response (AID 504840); type: functional
T1 sequence (Q9GZV3 whole entry): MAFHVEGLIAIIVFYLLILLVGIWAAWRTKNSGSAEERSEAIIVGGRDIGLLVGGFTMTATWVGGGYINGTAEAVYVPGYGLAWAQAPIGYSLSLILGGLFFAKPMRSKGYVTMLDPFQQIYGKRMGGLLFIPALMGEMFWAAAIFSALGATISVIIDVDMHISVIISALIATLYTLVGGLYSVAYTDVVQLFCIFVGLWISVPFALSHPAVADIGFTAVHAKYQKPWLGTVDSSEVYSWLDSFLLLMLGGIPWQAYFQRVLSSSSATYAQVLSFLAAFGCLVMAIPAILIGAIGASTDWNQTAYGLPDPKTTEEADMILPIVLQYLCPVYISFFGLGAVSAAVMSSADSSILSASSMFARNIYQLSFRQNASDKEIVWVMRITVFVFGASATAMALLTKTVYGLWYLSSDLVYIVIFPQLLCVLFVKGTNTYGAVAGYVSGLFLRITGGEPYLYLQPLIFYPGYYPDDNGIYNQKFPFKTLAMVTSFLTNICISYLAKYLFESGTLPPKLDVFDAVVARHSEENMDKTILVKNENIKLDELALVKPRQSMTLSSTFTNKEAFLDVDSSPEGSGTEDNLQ

Coagulation factor XII = molecular target: T2, Coagulation factor XII (Homo sapiens, UniProt P00748); type: functional;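 note: activated factor XIIa alpha cleaving a fluorogenic AMC peptide substrate; inhibitor potency from loss of enzyme activity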
T2 sequence (P00748 whole entry): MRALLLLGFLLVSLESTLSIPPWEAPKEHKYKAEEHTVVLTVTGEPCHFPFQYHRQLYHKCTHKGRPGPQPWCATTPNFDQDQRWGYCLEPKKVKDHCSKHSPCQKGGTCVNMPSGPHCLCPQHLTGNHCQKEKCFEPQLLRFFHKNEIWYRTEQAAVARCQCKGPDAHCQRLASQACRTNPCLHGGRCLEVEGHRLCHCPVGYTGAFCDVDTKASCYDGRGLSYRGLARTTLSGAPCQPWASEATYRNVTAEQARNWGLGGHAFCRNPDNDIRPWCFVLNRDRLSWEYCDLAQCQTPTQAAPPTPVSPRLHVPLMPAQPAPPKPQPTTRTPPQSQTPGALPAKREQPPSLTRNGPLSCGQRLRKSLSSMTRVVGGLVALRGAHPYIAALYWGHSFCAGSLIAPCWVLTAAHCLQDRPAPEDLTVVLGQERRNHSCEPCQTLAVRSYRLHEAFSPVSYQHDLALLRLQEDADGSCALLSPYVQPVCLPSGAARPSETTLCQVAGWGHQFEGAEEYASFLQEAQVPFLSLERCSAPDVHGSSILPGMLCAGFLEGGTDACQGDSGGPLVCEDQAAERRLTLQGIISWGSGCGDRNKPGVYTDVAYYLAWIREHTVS

[3] = molecular target: T3, Endoribonuclease toxin MazF (Escherichia coli K-12, UniProt P0AE70); assay: activation of MazEF endoribonuclease cleavage – biochemical, fluorescence, single-stranded RNA substrate, uHTS hits, dose response (AID 588481); type: functional
T3 sequence (P0AE70 whole entry): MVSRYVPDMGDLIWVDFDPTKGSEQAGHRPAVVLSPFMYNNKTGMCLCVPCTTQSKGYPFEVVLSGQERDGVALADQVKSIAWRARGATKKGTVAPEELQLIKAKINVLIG

[4] = molecular target: T3, Endoribonuclease toxin MazF; assay: substrate-only fluorescence increase artefacts – biochemical, single-stranded RNase substrate, counter-screen for MazEF activator project, dose response (AID 588502); type: functional
[5] = toxicity toward HepG2 liver cells – cell-based, plate reader, cherry-pick, antagonist series, cytotoxicity control, dose response (AID 743416); type: functional
[6] = A549 cell cytotoxicity, dose response, cytotoxicity control, plate reader, cherry-pick, antagonist series (AID 743412); type: functional, cell-based
Protein RecA = molecular target: T4, Protein RecA (Mycobacterium tuberculosis, UniProt P9WHJ3); assay: Fluorescence Cell-Free Homogeneous Dose Retest to Identify Inhibitors of RecA-Intein Splicing Activity. [Related pubchem assays (depositor defined):AID2097, AID2223, AID489010, AID492950]; type: functional
T4 sequence (P9WHJ3 whole entry): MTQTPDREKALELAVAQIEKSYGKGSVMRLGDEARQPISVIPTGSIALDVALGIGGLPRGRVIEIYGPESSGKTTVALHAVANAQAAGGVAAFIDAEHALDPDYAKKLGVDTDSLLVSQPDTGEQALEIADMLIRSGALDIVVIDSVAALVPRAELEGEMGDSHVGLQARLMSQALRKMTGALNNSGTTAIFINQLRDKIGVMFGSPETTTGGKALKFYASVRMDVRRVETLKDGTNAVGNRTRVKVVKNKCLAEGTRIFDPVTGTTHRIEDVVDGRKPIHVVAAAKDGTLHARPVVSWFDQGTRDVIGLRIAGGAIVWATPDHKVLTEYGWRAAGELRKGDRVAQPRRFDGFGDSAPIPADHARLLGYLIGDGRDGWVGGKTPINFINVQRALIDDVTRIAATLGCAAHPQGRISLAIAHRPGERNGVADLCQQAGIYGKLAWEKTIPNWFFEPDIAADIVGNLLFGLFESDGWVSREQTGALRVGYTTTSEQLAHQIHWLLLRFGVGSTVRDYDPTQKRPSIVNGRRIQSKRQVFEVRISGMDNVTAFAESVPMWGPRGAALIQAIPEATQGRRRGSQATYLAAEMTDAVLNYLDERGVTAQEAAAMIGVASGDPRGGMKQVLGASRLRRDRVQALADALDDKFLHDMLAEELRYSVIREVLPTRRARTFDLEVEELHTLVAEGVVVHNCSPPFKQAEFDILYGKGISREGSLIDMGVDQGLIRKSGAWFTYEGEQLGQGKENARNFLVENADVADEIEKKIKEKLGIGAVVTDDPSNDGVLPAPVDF

[7] = blockade of melanocortin 4 receptor signaling – cell-based, plate reader, cherry pick, counter-screen for LGR2 antagonist project, dose response (AID 743444); type: functional;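 note: transfected HEK 293 cells stimulated with alpha-MSH peptide; potency of inhibitors of the alpha-MSH evoked signal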
[8] = blockers of bursicon-stimulated LGR2 cAMP reporter – cell-based, HEK293, CRE-luciferase reporter, cherry pick, set 2, dose response (AID 743343); type: functional;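 note: transfected cells were stimulated with diluted bursicon conditioned medium after compound addition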
[9] = viability loss in HEK293 cells – cell-based, plate reader, cherry-picked samples, cytotoxicity control, dose response (AID 743446); type: functional
[10] = molecular target: T5, Replicative DNA helicase DnaB (Mycobacterium tuberculosis, UniProt P9WMR3); assay: DnaB intein splicing inhibitors, dose response, biochemical, cell-free fluorescence (AID 449749); type: functional
T5 sequence (P9WMR3 whole entry): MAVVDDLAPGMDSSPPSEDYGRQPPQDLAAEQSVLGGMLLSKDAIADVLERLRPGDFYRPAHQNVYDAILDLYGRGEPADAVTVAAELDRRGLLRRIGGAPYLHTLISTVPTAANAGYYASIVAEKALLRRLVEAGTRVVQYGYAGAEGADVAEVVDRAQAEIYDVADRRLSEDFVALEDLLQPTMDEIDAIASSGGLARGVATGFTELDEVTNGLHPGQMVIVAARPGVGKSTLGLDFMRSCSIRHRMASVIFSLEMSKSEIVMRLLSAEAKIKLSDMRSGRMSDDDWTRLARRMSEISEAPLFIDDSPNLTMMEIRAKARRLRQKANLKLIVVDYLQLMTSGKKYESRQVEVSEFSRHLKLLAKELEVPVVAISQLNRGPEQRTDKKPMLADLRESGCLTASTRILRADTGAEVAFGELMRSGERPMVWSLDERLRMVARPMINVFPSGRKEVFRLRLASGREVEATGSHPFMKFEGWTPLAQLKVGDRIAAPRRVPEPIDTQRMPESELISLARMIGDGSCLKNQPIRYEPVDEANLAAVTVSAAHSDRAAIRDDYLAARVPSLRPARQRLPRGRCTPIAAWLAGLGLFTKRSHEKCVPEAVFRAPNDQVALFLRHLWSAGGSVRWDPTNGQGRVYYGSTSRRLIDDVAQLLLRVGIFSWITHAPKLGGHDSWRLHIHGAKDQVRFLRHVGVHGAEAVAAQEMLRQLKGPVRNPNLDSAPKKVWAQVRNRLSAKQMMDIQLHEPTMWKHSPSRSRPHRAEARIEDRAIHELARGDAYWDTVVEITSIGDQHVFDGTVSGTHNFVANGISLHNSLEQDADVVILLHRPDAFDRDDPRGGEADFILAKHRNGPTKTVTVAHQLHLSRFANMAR

[11] = viability loss in human Jurkat cells – cell-based, luminescence, cytotoxicity control for P. falciparum gametocyte viability project, dose response (AID 1117277); type: functional;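 note: potency reflects loss of cellular ATP meaning fewer viable cells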
[12] = viability inhibitors of stage V gametocytes – luminescence, dose response (AID 1117278); type: functional, cell-based;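 note: gametocytes exposed to compound for 24 hours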
[13] = molecular target: T6, Mannose-6-phosphate isomerase (Homo sapiens, UniProt P34949); assay: MPI inhibition at elevated mannose 6-phosphate – biochemical, fluorescence intensity, high mannose 6-phosphate, primary screen (AID 1220)
T6 sequence (P34949 whole entry): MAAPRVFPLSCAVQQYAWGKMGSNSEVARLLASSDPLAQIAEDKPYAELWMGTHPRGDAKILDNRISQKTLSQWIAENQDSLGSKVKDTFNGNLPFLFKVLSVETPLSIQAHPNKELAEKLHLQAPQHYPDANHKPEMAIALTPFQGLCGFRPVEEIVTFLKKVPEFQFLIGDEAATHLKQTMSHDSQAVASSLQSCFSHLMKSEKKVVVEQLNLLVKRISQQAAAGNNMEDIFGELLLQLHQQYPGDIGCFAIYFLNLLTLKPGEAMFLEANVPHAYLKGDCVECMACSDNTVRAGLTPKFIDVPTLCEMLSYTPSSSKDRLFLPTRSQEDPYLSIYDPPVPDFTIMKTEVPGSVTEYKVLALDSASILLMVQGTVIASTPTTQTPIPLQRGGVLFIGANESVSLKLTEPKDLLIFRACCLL

Paired box protein Pax-8 = Paired box protein Pax-8 (Homo sapiens, UniProt Q06710); assay: PAX8 transcriptional activity inhibition in RMG-I – RMG-I cells, luciferase, cherry-pick, dose response (AID 687027); type: functional, cell-based;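 note: luciferase reporter driven by Pax8 target thyroperoxidase promoter measured by SteadyGlo luminescence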
Vero = assay: cells; type: functional, cell-based; details: Chlorocebus sabaeus

Chain of Paired box protein Pax-8 (Q06710 whole entry): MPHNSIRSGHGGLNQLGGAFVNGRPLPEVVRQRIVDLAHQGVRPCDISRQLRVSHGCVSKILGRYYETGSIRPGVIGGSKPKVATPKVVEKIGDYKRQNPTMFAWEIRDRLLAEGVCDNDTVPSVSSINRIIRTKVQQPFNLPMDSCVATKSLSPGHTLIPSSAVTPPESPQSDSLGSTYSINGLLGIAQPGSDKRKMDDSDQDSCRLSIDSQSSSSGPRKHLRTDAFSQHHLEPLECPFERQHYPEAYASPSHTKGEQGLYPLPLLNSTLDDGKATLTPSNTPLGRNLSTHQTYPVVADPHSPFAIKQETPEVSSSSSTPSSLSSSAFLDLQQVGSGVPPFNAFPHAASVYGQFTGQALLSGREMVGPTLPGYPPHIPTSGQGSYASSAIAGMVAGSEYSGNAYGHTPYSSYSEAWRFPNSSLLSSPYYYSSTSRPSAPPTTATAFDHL
Chain of Glyceraldehyde-3-phosphate dehydrogenase (P04406 whole entry): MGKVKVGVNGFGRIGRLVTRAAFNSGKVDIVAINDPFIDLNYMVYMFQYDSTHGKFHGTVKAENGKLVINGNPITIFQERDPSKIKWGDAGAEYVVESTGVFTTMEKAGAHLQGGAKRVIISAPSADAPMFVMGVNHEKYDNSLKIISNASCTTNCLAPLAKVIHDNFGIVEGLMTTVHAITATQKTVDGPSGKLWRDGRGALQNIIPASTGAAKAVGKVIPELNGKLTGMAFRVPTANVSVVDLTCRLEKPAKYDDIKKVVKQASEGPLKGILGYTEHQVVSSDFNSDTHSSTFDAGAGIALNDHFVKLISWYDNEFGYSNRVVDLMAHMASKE

## CC(C)CCNC(=O)c1cc(-c2ccc(Cl)cc2Cl)n[nH]1
[1]
  IC50: > 10 µM (inconclusive)

## O=C(Nc1ccc(S(=O)(=O)Nc2cnc3ccccc3n2)cc1)c1cc(F)c(F)cc1Cl
[2]
  IC50: 12.1 µM (active)

## Cc1ccc(C[S+]([O-])Cc2ccc(C(=O)NC3CCC(C)CC3)o2)cc1 (stereo unspecified)
[2]
  IC50: 13.8 µM (active)

## COc1cc(C(N)=O)cc(Cl)c1OC
Coagulation factor XII
  IC50: > 50 µM (inactive)

## CC/C(C)=N/NS(=O)(=O)c1ccc(C)c([N+](=O)[O-])c1
[3]
  EC50: > 99 µM (inactive)
[4]
  EC50: 7.91 µM (active)

## CN(C(=O)c1ccc(S(=O)(=O)c2cccc(Cl)c2)c([N+](=O)[O-])c1)C1CCCCC1
[5]
  AC50: 16.2 µM (active)
[6]
  AC50: 15.8 µM (active)
Protein RecA
  EC50: 4.33 µM (active)
[7]
  AC50: 7.45 µM (active)
[8]
  AC50: 5.15 µM (active)
[9]
  AC50: 13.8 µM (active)
[10]
  AC50: 5.56 µM (active)

## O=C(O)COc1ccc(NC(=O)c2cccs2)cc1
[11]
  IC50: > 83.3 µM (inactive)
[12]
  IC50: > 109 µM (inactive)

## CC(/C=C/c1ccco1)=N\NC(=O)CNc1ccc2ccccc2c1
[13]
  IC50: > 50 µM (not active)

## CC(=O)NS(=O)(=O)c1ccc(NC(=S)NC(=O)c2ccco2)cc1
Coagulation factor XII
  IC50: > 50 µM (inactive)

## Cn1nnnc1Sc1ncnc2scc(-c3cccc(C(F)(F)F)c3)c12
[5]
  AC50: 16.4 µM (active)
[6]
  AC50: 10.1 µM (active)
Paired box protein Pax-8
  AC50: 3.41 µM (active)
[7]
  AC50: 5.97 µM (active)
[8]
  AC50: 6.18 µM (active)
[9]
  AC50: 9.08 µM (active)

## CCN(CC)CCCNC(=O)c1cc(-c2ccc(Cl)c(Cl)c2)on1
[2]
  IC50: 12.9 µM (active)

## CN(C)S(=O)(=O)c1cccc(NC(=O)COC(=O)COc2ccc(Br)cc2)c1
[11]
  IC50: > 83.3 µM (inactive)
[12]
  IC50: > 109 µM (inactive)

## O=C(Nc1ccc(Cl)c(C(F)(F)F)c1)N1CCCC(O)C1 (stereo unspecified)
Coagulation factor XII
  IC50: > 50 µM (inactive)

## CCC(=O)NC(C)C(c1cccs1)N1CCOCC1 (stereo unspecified)
[11]
  IC50: > 83.3 µM (inactive)
[12]
  IC50: > 109 µM (inactive)

## Cc1nn(CCCC(=O)O)c(C)c1[N+](=O)[O-]
[11]
  IC50: > 83.4 µM (inactive)
[12]
  IC50: > 109 µM (inactive)

## Cc1ccc(NC(=O)c2ncn(CC(=O)N3CCN(c4ccccn4)CC3)n2)cc1C
[5]
  AC50: > 52 µM (inactive)
[6]
  AC50: > 52 µM (inactive)

## COc1ccc(NC(=O)[C@H](Cc2c[nH]c3ccccc23)NC(=O)[C@@H]2Cc3ccccc3CN2)cc1
Vero
  IC50: 11.8 µM (active)

## NS(=O)(=O)c1ccc(Cl)cc1[N+](=O)[O-]
Coagulation factor XII
  IC50: > 50 µM (inactive)

## Cc1ccc(-n2c(C)nn(Cc3ccc([N+](=O)[O-])cc3)c2=O)cc1
[11]
  IC50: > 83.4 µM (inactive)
[12]
  IC50: > 109 µM (inactive)

## Oc1ccccc1-c1nc(NCc2ccccc2)c2ccccc2n1
[3]
  EC50: > 99 µM (inactive)
[4]
  EC50: > 99 µM (inactive)

## CCOc1ccc2c(c1)c1nc3ccccc3nc1n2C
[3]
  EC50: > 99 µM (inactive)
[4]
  EC50: > 99 µM (inactive)

Reference: ChEMBL document CHEMBL1201862, “PubChem BioAssay data set” (2004)
